Experimental data as given in US9062124B2, “GIP-based mixed agonists for treatment of metabolic disorders and obesity” (priority 2008, dated 2015).
Bridges are numbered along the chain shown (N, C = ends). Where no end group is shown, it is not given here. [ ]: non-standard residue; d: D form. PEG 40 kDa = PEG (40 kDa) covalently attached to Cys; Aib = CC(C)(N)C(=O)O

Experiments:
[1] = Body weight of mice after peptide injection; conditions: for % change in body weight: Example 26, intraperitoneal, 3 or 10 nmol/kg/week, up to Day 7; for total change in body weight: subcutaneous, Day 7
[2] = Blood glucose levels of mice after peptide injection; conditions: subcutaneous; for blood glucose levels: Example 28, DIO mice, 10 nmol/kg, Day 0 versus Day 7
[3] = Glucose tolerance test (1-hour and 24-hour GTT) in DIO mice; format: in vivo; conditions: Example 26; for potency in GTT compared with GLP-1 agonist control peptide: 1 or 3 nmol/kg/week versus control at 10 nmol/kg/week; for blood glucose levels in 1-hour and 24-hour GTT: DIO mice, intraperitoneal, 1, 3 or 10 nmol/kg/week, versus vehicle control
Protocol: A 1-hour glucose tolerance test (GTT) was performed on the mice by intraperitoneally injecting a 25% (w/v) glucose saline solution into the mice one hour after injection with one of the peptides or vehicle control. The glucose saline solution was administered to the mice at a dose of 1.5 g per kg of mouse body weight. Blood glucose levels were measured at the time of injection of peptide or vehicle control (−60 min), at the time of glucose saline solution injection (0 min), or at 15, 30, 60, or 120 min post injection with the glucose saline solution.
A 24-hour GTT also was performed on the mice in the same manner as the 1-hour GTT, except that the glucose saline solution was administered to the mice 24 hours after injection with the peptide or vehicle control. The results of the 24-hour GTT are showri in FIG. 8.

[4] = test system: glucagon receptor, GLP-1 receptor or GIP receptor; test: Agonist profile across receptors assigned from the cAMP reporter assay data; format: cell-based; conditions: assigned from the in vitro EC50 data of Tables 1-4

| Substance | reduction of body weight ([1]; Example 22, DIO mice, subcutaneous QW, 70 or 210 nmol/kg/week) | % change in body weight ([1]; DIO mice) | total change in body weight ([1]; Example 28, DIO mice, 10 nmol/kg) | blood glucose levels [2] | potency in GTT compared with GLP-1 agonist control peptide [3] | blood glucose levels in 1-hour and 24-hour GTT [3] | receptor activity profile (glucagon / GLP-1 / GIP agonism) [4] | total change in body weight ([1]; Example 27, mice, 10 or 35 nmol/kg/week) | total change in blood glucose ([2]; Example 27, mice, 10 or 35 nmol/kg/week, Day 7) |
| --- | --- | --- | --- | --- | --- | --- | --- | --- | --- |
| mt-178: pegylated, cyclic, lactam-containing GIP-active glucagon analog; GLP-1/GIP co-agonist peptide (Y[Aib]EGTFTSDYSIYLDEQAAKEFVNWLLAGGPSSGAPPPSC(PEG 40 kDa)-NH2; lactam 16-20) | a little more effective at reducing body weight in the mice as Chimera 2 AIB2, but not as effective as Chimera 2 AIB2 lactam | lost weight to the same or greater extent of mice injected with the GLP-agonist control peptide | greatest loss of body weight 7 days after injection | decreased | greater than that of the GLP-1 agonist control peptide | exhibited decreased levels of blood glucose | exemplary GLP-1/GIP co-agonist peptides |  |  |
| mt-274: pegylated, linear peptide lacking a lactam, Glu at position 3, PEG on C-terminal Cys at position 40 (Y[Aib]EGTFTSDYSIYLDKQAA[Aib]EFVNWLLAGGPSSGAPPPSC(PEG 40 kDa)-NH2) |  | lost weight to the same or greater extent of mice injected with the GLP-agonist control peptide |  | decreased | appeared to have the highest potency | exhibited decreased levels of blood glucose |  | most dramatic changes in body weight | most dramatic changes in blood glucose |
